Some test systems named below: UO-31 renal; NCI/ADR-RES ovarian; MDA-MB-435; HL-60(TB) leukemia; SK-MEL-28 melanoma; UACC-62 melanoma; MDA-MB-231 breast; CAKI-1 renal; OVCAR-3 ovarian; COLO 205 colon.
Experiment in all cases: DTP human tumour cell line panel, 48 h

This passage reports GI50 and TGI results from PubChem BioAssay (NCI).

Molecules are shown by their SMILES. Values joined by “and” are separate entries in the source; they are usually repeats but may differ in a detail not shown here. Equal values may be shown once.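 Cultured in 96-well plates, cells were exposed to test compound for 48 hours across five concentrations. Here, GI50 denotes the concentration required for 50% inhibition of growth. At the TGI there is no net growth.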

For orientation: GI50 means the concentration at which growth is held to half of that of the control. The term TGI denotes the concentration giving total growth inhibition. A low value points to more potent growth arrest. For `CCOC(=O)c1nc2cc(C(F)(F)F)ccc2[n+]([O-])c1C`, the GI50 with UO-31 renal, in the assay on NCI/ADR-RES ovarian, in the assay on MDA-MB-435, with HL-60(TB) leukemia, with SK-MEL-28 melanoma and with UACC-62 melanoma was above 100 µM each time. Besides, the GI50 in the assay with MDA-MB-231 breast, with CAKI-1 renal, in the assay with OVCAR-3 ovarian and with COLO 205 colon was above 100 µM in each case. For the same compound, the concentration for total growth inhibition (TGI) in the assay on UO-31 renal, in the assay with NCI/ADR-RES ovarian, with MDA-MB-435, with HL-60(TB) leukemia, in the assay with SK-MEL-28 melanoma and in the assay with UACC-62 melanoma was above 100 µM each time. The concentration for total growth inhibition (TGI) in the assay with MDA-MB-231 breast, with CAKI-1 renal, in the assay with OVCAR-3 ovarian and in the assay on COLO 205 colon was above 100 µM throughout.
On to `CCN1C(=O)N(CC)C2C1NN=c1s/c(=C\c3cccc([N+](=O)[O-])c3)c(=O)n12` (stereo not given), for which the concentration for 50% growth inhibition (GI50) in the assay on UO-31 renal was 0.321 µM; in the assay with NCI/ADR-RES ovarian, 0.0443 µM; in the assay with MDA-MB-435 it was 0.0214 µM; in the assay with HL-60(TB) leukemia, 0.0496 µM; with UACC-62 melanoma, 0.0539 µM; in the assay on MDA-MB-231 breast, 0.231 µM. Moreover, the GI50 in the assay on CAKI-1 renal is 0.052 µM; in the assay with OVCAR-3 ovarian it was 0.0575 µM; in the assay with COLO 205 colon it was 0.0663 µM. Besides, the concentration for total growth inhibition (TGI) was above 100 µM with UO-31 renal; 0.703 µM with NCI/ADR-RES ovarian; 0.0504 µM in the assay with MDA-MB-435; 0.21 µM with HL-60(TB) leukemia; above 100 µM with SK-MEL-28 melanoma; above 100 µM in the assay with UACC-62 melanoma. Also, the figures for the total growth inhibition concentration (TGI) in the assay on CAKI-1 renal, in the assay with OVCAR-3 ovarian and in the assay on COLO 205 colon were above 100 µM, 0.399 µM and 0.538 µM, respectively.
For `C[C@@](O)(/C=C/[C@H]1CC=CC(=O)O1)[C@@H](C[C@@H](O)\C=C/C=C\C=C\CO)OP(=O)(O)O`, the GI50 is 9.39 µM with UO-31 renal; 8.69 µM in the assay with SK-MEL-28 melanoma; 6.51 µM in the assay on UACC-62 melanoma; 12.1 µM and 2.94 µM in the assay on OVCAR-3 ovarian. Further, the total growth inhibition concentration (TGI) in the assay on UO-31 renal was 19.5 µM and 22 µM; with NCI/ADR-RES ovarian it was 143 µM; in the assay on MDA-MB-435, 11.7 µM; with HL-60(TB) leukemia, 2.99 µM; in the assay on SK-MEL-28 melanoma, 38.8 µM and 25.3 µM; in the assay on UACC-62 melanoma it was 28 µM and 11 µM. For the same compound, the total growth inhibition concentration (TGI) in the assay with MDA-MB-231 breast is 138 µM; in the assay on CAKI-1 renal, 4.66 µM; in the assay on OVCAR-3 ovarian it was 27.7 µM and 12.7 µM; with COLO 205 colon it was 18.2 µM and 18.7 µM.
Take `CC(OC(=O)N(N(CCCl)S(C)(=O)=O)S(C)(=O)=O)c1ccc([N+](=O)[O-])cc1` (stereo not given): the GI50 in the assay on UO-31 renal was above 100 µM; in the assay on NCI/ADR-RES ovarian it was 35.4 µM; in the assay with MDA-MB-435, 99.4 µM; with HL-60(TB) leukemia it was 40.1 µM; in the assay with SK-MEL-28 melanoma, above 100 µM; with UACC-62 melanoma, 29.6 µM. For the same compound, the GI50 is above 51 µM with MDA-MB-231 breast, 64.3 µM with CAKI-1 renal, 42.5 µM in the assay on OVCAR-3 ovarian and 77.6 µM with COLO 205 colon. The concentration for total growth inhibition (TGI) with UO-31 renal, with NCI/ADR-RES ovarian, with MDA-MB-435, in the assay with HL-60(TB) leukemia, in the assay with SK-MEL-28 melanoma and in the assay on UACC-62 melanoma was above 100 µM in each case. In addition, the TGI in the assay with MDA-MB-231 breast is 96.8 µM; with CAKI-1 renal, above 100 µM; in the assay on OVCAR-3 ovarian it was above 100 µM; in the assay on COLO 205 colon, above 100 µM.
For the compound `CCN(CC)c1ccc(/C=C/C=C(/C#N)C(N)=S)cc1`, the GI50 in the assay on UO-31 renal was 4.39 µM; in the assay with NCI/ADR-RES ovarian, 3.85 µM; in the assay on MDA-MB-435 it was 5.01 µM; in the assay on HL-60(TB) leukemia it was 2.53 µM; with SK-MEL-28 melanoma, 21.2 µM; with UACC-62 melanoma, 15.2 µM. Further, the GI50 in the assay with MDA-MB-231 breast was 2.11 µM; in the assay with CAKI-1 renal, 31.8 µM; in the assay with OVCAR-3 ovarian, 10.9 µM; in the assay on COLO 205 colon, 7.13 µM. Moreover, the total growth inhibition concentration (TGI) in the assay on UO-31 renal is above 100 µM; with NCI/ADR-RES ovarian, above 100 µM; in the assay with MDA-MB-435, above 100 µM; with HL-60(TB) leukemia, 18.9 µM; with SK-MEL-28 melanoma it was above 100 µM; in the assay with UACC-62 melanoma, 48.8 µM. The total growth inhibition concentration (TGI) was 6.03 µM in the assay on MDA-MB-231 breast, above 100 µM in the assay on CAKI-1 renal, above 100 µM with OVCAR-3 ovarian and above 100 µM in the assay on COLO 205 colon.
As for `Oc1c2c(c(O)c3ccccc13)C1(N=N2)c2ccccc2Oc2ccccc21`, the TGI was determined as 23.3 µM with UO-31 renal; 33.4 µM in the assay with NCI/ADR-RES ovarian; 17.9 µM in the assay with MDA-MB-435; 62.1 µM with HL-60(TB) leukemia; 28.8 µM with SK-MEL-28 melanoma; 25.1 µM with UACC-62 melanoma. The TGI with MDA-MB-231 breast was 32.4 µM; in the assay on CAKI-1 renal, 26.5 µM; in the assay with OVCAR-3 ovarian, 10.8 µM; in the assay on COLO 205 colon it was 28 µM.
As to `CC/C=C\C[C@H](O)C/C=C1/C(=O)C=C[C@@H]1C/C=C\CCCC(=O)NC`, the GI50 is 1.52 µM in the assay on UO-31 renal; 2.5 µM with NCI/ADR-RES ovarian; 1.73 µM in the assay on MDA-MB-435; 1.7 µM with HL-60(TB) leukemia; 1.69 µM in the assay on SK-MEL-28 melanoma; 1.37 µM with UACC-62 melanoma. Moreover, the GI50 is 4.24 µM in the assay with MDA-MB-231 breast, 1.38 µM with CAKI-1 renal, 1.2 µM with OVCAR-3 ovarian and 1.71 µM with COLO 205 colon. In addition, the TGI in the assay with UO-31 renal turned out to be 3.35 µM; in the assay on NCI/ADR-RES ovarian it was 10.5 µM; with MDA-MB-435 it was 6.64 µM; in the assay on HL-60(TB) leukemia, 7.24 µM; with SK-MEL-28 melanoma, 3.6 µM; in the assay on UACC-62 melanoma it was 3.5 µM. Moreover, the total growth inhibition concentration (TGI) came to 14.1 µM in the assay on MDA-MB-231 breast, 4.08 µM in the assay with CAKI-1 renal, 4.11 µM in the assay on OVCAR-3 ovarian and 3.93 µM in the assay on COLO 205 colon.
In the case of `CNCCCn1c2c(c3ccc(F)cc3c1=O)C(=O)c1cc(OC)cnc1-2`, the GI50 with UO-31 renal is 0.13 µM; in the assay on NCI/ADR-RES ovarian it was 0.431 µM; in the assay with MDA-MB-435, 0.471 µM; in the assay with HL-60(TB) leukemia, 0.221 µM; with SK-MEL-28 melanoma it was 1.44 µM; with UACC-62 melanoma it was 0.608 µM. In addition, the results for the GI50 in the assay on MDA-MB-231 breast, in the assay with OVCAR-3 ovarian and in the assay on COLO 205 colon were 0.7 µM, 0.263 µM and 0.0722 µM, respectively. In addition, the TGI in the assay on UO-31 renal came out at 0.809 µM; in the assay with NCI/ADR-RES ovarian, 9.51 µM; in the assay with MDA-MB-435, 1.81 µM; in the assay with HL-60(TB) leukemia, 0.753 µM; with SK-MEL-28 melanoma it was 3.94 µM; with UACC-62 melanoma, 2.68 µM. Also, the results for the TGI in the assay with MDA-MB-231 breast, in the assay with OVCAR-3 ovarian and in the assay on COLO 205 colon were 2.38 µM, 1.39 µM and 1.14 µM, respectively.
